Counter-ions that a name gives are not always drawn.
Columns and labels:
[1] = system: Clone#3, 293-EGFP-siGFP cells; assay: plate-reader chemical library screen, GFP signal in Clone#3 cells; format: cell-based, human; settings: for Clone#3, 293-EGFP-siGFP cells GFP signal intensity with Drug alone: plate reader
From the text: Further, in some embodiments, additional screens using the same library can be performed to identify other modulators of the siRNA and the miRNA pathways. In some embodiments, instead of examining the GFP signal visually under a microscope, the GFP signal can be quantified using an automatic plate reader. In such embodiments, two additional rounds of screening can be performed. In the first round of screening, the clones can be treated with compounds from a library, e.g., The Spectrum Collection, alone and the GFP level can be quantified after a period of time, e.g., 48 hours. In the second round of screening, the clones can be treated with compounds from a library, e.g., The Spectrum Collection, in the presence of 50 μM RNAi-E, i.e., enoxacin. This assay enables compounds that can modulate the activity of RNAi-E to be identified.
(§1) The presently disclosed chemical library also was screened using a plate reader to quantify the GFP signal intensity. The following screens were conducted: (1) repeating chemical screen using plate reader to quantify the GFP signal (50 mM each drug); (2) treating cells with 50 mM RNAi-I (30 mM each additional drug); and treating cells with […] (30 mM each additional drug).
(§2) For each screen, two types of cells were used: Clone#3 and EGFP. Clone#3 cells are 293-EGFP-siGFP and could be used to identify the modulators of the RNAi pathway. EGFP cells are 293-EGFP only and were used as a control to eliminate the compounds that could kill the cells or interfere GFP signals that are not related to RNAi pathway. The results for each screen are summarized in Table 2 and Table 3, respectively.
(§3) In these three screens, compounds were identified that could either enhance or inhibit RNAi activity in Clone#3, but had no effect on EGFP cells, which would indicate that these compounds might specifically work on RNAi pathway. The modulation of RNAi activity by these compounds was calculated as the percentage of GFP signal to Clone#3 control cells.

[2] = system: siRNA-mediated mRNA degradation; assay: cell-based reporter screen: human 293 cells stably expressing GFP plus siRNA hairpin against GFP; settings: for Modulation Effect (inhibit or enhance siRNA-mediated mRNA degradation): Table 1
Description: FIG. 2 discloses one embodiment of the cell-based reporter system of the invention. In this example, a human 293-cell line stably expressing a reporter gene, GFP, was used. This cell line was further transfected with a construct that expresses siRNA hairpin against GFP, which can decrease the level of GFP expression. Individual clones were isolated with greatly (although not completely) reduced GFP expression.
Using the above-identified clones, a screen was performed using The Spectrum Collection (MicroSource Discovery Systems, Inc., Gaylordsville, Conn., United States of America), which contains 2000 biologically active and structurally diverse compounds from libraries of known drugs, experimental bioactives, and pure natural products. For example, in one embodiment, a pilot screen of this library identified one inhibitor and one enhancer of siRNA-mediated mRNA degradation.
To identify the chemical compounds that modulate the siRNA and miRNA pathway, a screening strategy was used. A human 293-cell line stably expressing a reporter gene, GFP, was used. This cell line was further transfected with a construct that expresses siRNA hairpin against GFP, which could knock down the expression of GFP. […] Using these clones, a screen was performed using The Spectrum Collection, which contains 2000 biologically active and structurally diverse compounds from libraries of known drugs, experimental bioactives, and pure natural products.
Human 293 cells stably expressing a reporter gene, GFP, were further transfected with a construct that expresses an siRNA hairpin against GFP, which results in the knock-down of the expression of GFP. Transfected cells containing the siRNA suppressed GPF expression were split and then treated with an effective amount of enoxacin (FIG. 4, second panel) and were grown for a period of 24-48 hours.

EGFP, 293-EGFP cells = assay: plate-reader chemical library screen, GFP signal in control EGFP cells; format: cell-based, human; settings: for EGFP, 293-EGFP cells With RNAi-E / EGFP, 293-EGFP cells Drug alone: GFP signal
Description: as §1, §2, §3

tumor cell models = settings: cited from earlier work
[3] = 50 mM RNAi-E, 30 mM each additional drug
[4] = 50 mM RNAi-E, 30 mM each additional drug, values given as decimals
[5] = 50 mM each drug, values given as decimals

| Structure (SMILES) | Clone#3, 293-EGFP-siGFP cells GFP signal intensity with Drug and RNAi-E [1, 3] | Clone#3, 293-EGFP-siGFP cells GFP signal intensity with Drug alone ([1]; 50 mM each drug) | Effect ([1]; Table 2) | Effect ([1]; as listed in Table 3) | Modulation Effect (inhibit or enhance siRNA-mediated mRNA degradation) [2] | EGFP, 293-EGFP cells With RNAi-E (EGFP, 293-EGFP cells; [3]) | EGFP, 293-EGFP cells Drug alone (EGFP, 293-EGFP cells; 50 mM each drug) | also measured |
| --- | --- | --- | --- | --- | --- | --- | --- | --- |
| CC(=O)O[C@H]1C[C@@]2(C)[C@@H](C[C@@H](O)[C@H]3[C@@]4(C)CC[C@@H](O)[C@@H](C)[C@@H]4CC[C@@]32C)/C1=C(\CCC=C(C)C)C(=O)O [Fusidic Acid] | 18581363.5 | 27803206.5 | Enhancer | Enhancer | Enhancer | 192354884 | 229560272 |  |
| COc1cc(C(=O)NCc2ccc(OCCN(C)C)cc2)cc(OC)c1OC [trimethobenzamide] |  |  |  |  |  |  |  | siRNA-mediated mRNA degradation and gene knock-down ([2]; pilot screen of The Spectrum Collection, FIG. 3, FIG. 4): inhibit siRNA-mediated mRNA degradation and gene knock-down |
| CC(=O)N(O)CCCCCNC(=O)CCC(=O)N(O)CCCCCNC(=O)CCC(=O)N(O)CCCCCN [desferrioxamine] |  |  |  |  |  |  |  | anti-proliferative activity (tumor cell models): anti-proliferative activity; sensitivity of aggressive tumors to Fe chelation therapy (tumor cell models; neuroblastoma (NB) and leukemia, in vitro, in vivo and clinical trials): sensitive |
| CC(C)C[C@H]1C(=O)N2CCC[C@H]2[C@]2(O)O[C@](NC(=O)[C@@H]3C=C4c5cccc6[nH]c(Br)c(c56)C[C@H]4N(C)C3)(C(C)C)C(=O)N12 [Bromocriptine Mesylate] | 10893798 | 7607590 |  |  |  | 136409552 | 132392840 |  |
| Cc1cc(=O)c2c(O)c3c(cc2o1)OCC(C)CC3 (stereo not shown) [Dihydroptaeroxylin] | 17140237.8 | 26383349 | Enhancer | Enhancer | Enhancer | 194786588 | 215783848 | Clone#3, 293-EGFP-siGFP cells % GFP signal intensity with drug + RNAi-E/Control (no drug) [1, 4]: 59.4446%; Clone#3 293-EGFP-siGFP cells % GFP signal intensity with drug alone/Control (no drug) [1, 5]: 91.5009%; EGFP, 293-EGFP cells Control % (With RNAi-E) (EGFP, 293-EGFP cells; [4]): 95.4836%; EGFP, 293-EGFP cells Control % (Drug alone) (EGFP, 293-EGFP cells; [5]): 105.776% |
| CC(=O)N(O)CCCCCNC(=O)CCC(=O)N(O)CCCCCNC(=O)CCC(=O)N(O)CCCCCN [Deferoxamine Mesylate] | 12987131 | 15874023.8 |  |  |  | 194519648 | 194929488 |  |
| O=C(NCCN(CCNC(=O)c1cc(S(=O)(=O)O)c2cccnc2c1O)CCNC(=O)c1cc(S(=O)(=O)O)c2cccnc2c1O)c1cc(S(=O)(=O)O)c2cccnc2c1O [OTX, O-trensox] |  |  |  |  |  |  |  | anti-proliferative activity (tumor cell models): anti-proliferative activity |
| O=C1CC[C@]23/C=C/C(=O)NCCCCNCCCNC(=O)/C=C/c4ccc(c2c4)O[C@@H]3C1 [Lunarine] | 11171512 | 9353700 | Enhancer | Enhancer | Enhancer | 130354040 | 131010562 |  |
| Cc1ncc(CO)c(C=NNC(=O)c2ccncc2)c1O [P1H, pyridoxal isonicotinoyl hydrazone] |  |  |  |  |  |  |  | anti-proliferative activity (tumor cell models): anti-proliferative activity |
| CC(=O)O[C@@H]1C[C@H]2C(C)(C)[C@@H](O)CC[C@]2(C)[C@H]2CC[C@]3(C)C(=CC(=O)O[C@H]3c3ccoc3)[C@@]21C [3-beta-Hyroxydeoxo-dihydrodeoxygedunin, 3-beta-hydroxydeoxodihydrodeoxygedunin] | 13998738 | 17430963 | Enhancer | Enhancer | Enhancer | 186574276 | 213530556 |  |
| Nc1nc2[nH]cnc2c(=S)[nH]1 [Thioguanine] | 9228044.75 | 11903224.8 | Enhancer | Enhancer | Enhancer | 193528220 | 181033260 |  |
| O=C(O)CCC(=O)c1ccc(-c2ccccc2)cc1 [Fenbufen] | 17801864.5 | 26499027 | Enhancer | Enhancer | Enhancer | 191729340 | 204633204 |  |
| COc1cc2c(cc1OC)C(=O)OC2 [Metameconine] |  |  | Inhibitor | Inhibitor | Inhibitor |  |  |  |
| C=C1C2CCC3(C)C(c4ccoc4)OC(=O)CC13OC1CC(O)C(C)(C)C(CC(=O)OC)C12C (stereo not drawn) [3-alpha-hydroxy-3-deoxyangolensic acid methyl ester] | 10902446 | 10997867 | Enhancer | Enhancer | Enhancer | 118263232 | 129330172 |  |
| NC(=S)NN=Cc1ncccc1N [Triapine, 3-aminopyridine-2-carboxaldehyde thiosemicarbazone] |  |  |  |  |  |  |  | activity against tumor cell models (tumor cell models): has activity against a variety of tumor cell models; anti-proliferative activity (tumor cell models): anti-proliferative activity |
| NC(=S)NN=Cc1ccc(O)cn1 [5-HP, 5-hydroxypyridine-2-carboxaldehyde thiosemicarbazone] |  |  |  |  |  |  |  | anti-proliferative activity (tumor cell models): anti-proliferative activity |
| Cc1ccc(/C(=C\CN2CCCC2)c2ccccn2)cc1 [Triprolidine Hydrochloride] | 19639902.5 | 26791778.5 |  |  |  | 202110668 | 202102776 |  |
| C=C[C@@]1(C)CC(=O)[C@]2(O)[C@@]3(C)[C@@H](O)CCC(C)(C)[C@@H]3[C@H](O)[C@H](OC(C)=O)[C@@]2(C)O1 [Colforsin] |  |  | Inhibitor | Inhibitor | Inhibitor |  |  |  |

Reference: patent US20120071539A1, “COMPOUNDS AND METHODS FOR MODULATING THE SILENCING OF A POLYNUCLEOTIDE OF INTEREST” (Emory University, priority 2006, published 2012)
